Like-named read-outs stand apart in the source and are kept apart here. *1 amine or outer side, *2 acyl side, *3 side chain or, on linkers, in order; H or OH if unused. Where a SMILES comes first, the peptide text is derived from it. [ ]: non-standard residue; d: D form. X1 = N=C(NCCC[C@H](N[*:1])C(=O)[*:2])NCCC[C@H]1O[C@@H](n2cnc3c(N)ncnc32)[C@H](O)[C@@H]1O
What was measured:
CARM1 [1] = molecular target: T1, CARM1 (Mus musculus, UniProt Q9WVG6); assay: MRM LC-MS CARM1 enzyme inhibition assay (PABP1 456–466 peptide substrate, direct detection of aDMA product); assay type: biochemical; conditions: 286 nM CARM1, 12 μM PABP1 456–466, 10 μM AdoMet, 15 min preincubation, 2 h room temperature; duplicate data, ± SD
T1 construct: corresponding to the PRMT core (residues 130–497, mmCARM1_130–497) were amplified by PCR; GST (followed by TEV protease cleavage site) (N, cleaved yes); made in house; host or cells: Sf9 insect cells (baculovirus)
T1 sequence (Q9WVG6 130-497): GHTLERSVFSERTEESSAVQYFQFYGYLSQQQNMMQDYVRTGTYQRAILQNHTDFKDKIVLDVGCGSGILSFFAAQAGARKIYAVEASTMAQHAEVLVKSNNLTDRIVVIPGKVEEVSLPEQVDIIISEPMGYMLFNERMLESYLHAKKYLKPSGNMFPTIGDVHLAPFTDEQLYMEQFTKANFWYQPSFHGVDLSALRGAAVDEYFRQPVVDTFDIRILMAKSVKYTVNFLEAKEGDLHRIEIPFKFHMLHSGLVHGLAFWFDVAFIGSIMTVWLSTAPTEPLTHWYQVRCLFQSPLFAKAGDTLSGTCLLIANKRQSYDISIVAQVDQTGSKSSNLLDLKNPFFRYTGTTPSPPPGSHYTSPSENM
Source text: The positive clones were confirmed by sequencing (GATC). The sequences were subcloned in a pDEST20 vector using an LR reaction. The resulting recombinant protein is harboring an amino-terminal glutathione S-transferase (GST) tag followed by a Tobacco etch virus (TEV) protease cleavage site. […] Bacmid DNA purified from recombination-positive white colonies was transfected into Sf9 cells using the Lipofectin reagent (Invitrogen). Viruses were harvested 10 days after transfection. Sf9 cells were grown at 300 K in suspension culture in Grace medium (Gibco) using Bellco spinner flasks. sf9 cell culture (1 L, 0.8 × 10^6 cells·mL^-1) was infected with recombinant […]1 virus with an infection multiplicity of 1. The cells were harvested 48 h post-infection. Cell lysis was performed by sonication in 50 mL of buffer A [50 mM Tris-HCl pH 8.0, 250 mM NaCl, 5% glycerol, 5 mM TCEP, 0.01% NP40 and anti-proteases (Roche, Complete, EDTA-free)], and cellular debris was sedimented by centrifugation of the lysate at 40 000g for 30 min. The supernatant was incubated overnight at 277 K with 2 mL of glutathione Sepharose resin (GE Healthcare). After a short centrifugation, the supernatants were discarded, and the beads were poured in an Econo-column (Bio-Rad). After two washing steps with 10 mL of buffer A, 2 mL of buffer A supplemented with in-house produced TEV protease was applied to the columns and digestion was performed for 4 h at 303 K with gentle mixing. The digest was concentrated with an Amicon Ultra 10K (Milipore), loaded on a gel-filtration column (HiLoad 16/60 Superdex S200, GE Healthcare), and eluted at 1 mL·min^-1 with buffer B [20 mM Tris-HCl pH 8.0, 100 mM NaCl, 1 mM TCEP] using an ÄKTA Purifier device (GE Healthcare). Fractions containing […]1_130-497 were pooled and concentrated to 7.75 mg·mL^-1. […] The reaction was subsequently quenched by the addition of 30 μL of the reaction mixture to 10 μL of a 0.1% formic acid solution (pH 2). […] The supernatant (60 μL) was transferred to a new 96-well plate and analyzed. […] The products were eluted with a water-acetonitrile gradient moving from 20 to 92% acetonitrile (0.1% FA) over 6 min at a flow rate of 0.5 mL·min^-1. The injection volume was 10 μL. The ionization source was operated in positive mode using an interface voltage of 4.5 kV, nebulizing gas at 1.5 L/min, drying gas at 15 L/min, and a desolvation line (DL) temperature of 250 °C. The MRM parameter optimization was performed using both the analyte (PABP1^456-466-R^460-aDMA) and hexadeuterated internal standard (PABP1^456-466-R^460-d6-aDMA). The results of this optimization, which include precursor ion scanning, collision energy, and Q1 and Q3 scanning, are summarized in Table 1. […] For commercially available inhibitors that were not soluble in water, stock solutions were prepared in DMSO and diluted to a final DMSO concentration of <1% in the assay mixture. […] The mixture was incubated for 2 h at room temperature, and the reaction was subsequently quenched by the addition of 30 μL of the reaction mixture to 10 μL of a 0.1% formic acid solution (pH 2). […] The supernatant (60 μL) was transferred to a new 96-well plate and analyzed by LC-MS as described above. Negative controls (no enzyme) and positive controls (no inhibitor) were included in each plate. For quantification of the methylated product, the area ratio of analyte to internal standard was calculated and quantified using the linearity line obtained with the reference standards. […] To obtain kcat with units of s^-1, the maximal velocity (Vmax) is divided by 3600. [drawing 3] 3 The percentage inhibition was plotted as a function of inhibitor concentration and fit using a nonlinear regression analysis of the sigmoidal dose-response curve generated using the normalized data and a variable slope following eq 4. [drawing 4] 4 where Y is the percent inhibition, X is the logarithmic concentration of the inhibitors, and Hill Slope is the slope factor or Hill coefficient. […]

CARM1 [2] = molecular target: T2, CARM1 (Homo sapiens, UniProt Q86X55); assay: commercially available chemiluminescent antibody-based ELISA kit (histone H3-derived peptide, aDMA at H3-R17); assay type: biochemical
T2 sequence (Q86X55 1-608): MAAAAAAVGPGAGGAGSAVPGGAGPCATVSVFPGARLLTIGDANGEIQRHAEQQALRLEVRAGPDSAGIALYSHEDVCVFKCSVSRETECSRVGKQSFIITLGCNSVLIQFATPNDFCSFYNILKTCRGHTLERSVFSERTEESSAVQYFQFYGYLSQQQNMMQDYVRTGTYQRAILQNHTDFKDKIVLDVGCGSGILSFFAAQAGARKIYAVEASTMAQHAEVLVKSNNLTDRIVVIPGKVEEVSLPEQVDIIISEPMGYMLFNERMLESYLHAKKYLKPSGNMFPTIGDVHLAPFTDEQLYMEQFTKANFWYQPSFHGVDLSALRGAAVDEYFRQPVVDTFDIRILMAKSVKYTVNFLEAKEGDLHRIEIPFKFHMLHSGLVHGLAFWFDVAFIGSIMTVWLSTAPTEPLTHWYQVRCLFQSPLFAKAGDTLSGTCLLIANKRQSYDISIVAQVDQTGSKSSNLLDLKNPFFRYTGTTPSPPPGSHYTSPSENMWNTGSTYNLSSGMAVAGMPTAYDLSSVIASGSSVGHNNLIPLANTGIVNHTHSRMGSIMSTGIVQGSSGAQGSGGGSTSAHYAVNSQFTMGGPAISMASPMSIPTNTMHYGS
Description: We next applied the assay in assessing the inhibition of CARM1 by a number of known inhibitors of varying potencies including AdoHcy (1), MS023 (2), MS049 (3), TP064 (4), and a series of recently reported peptidomimetic CARM1 inhibitors (5–9) (Figure 3).[20],[32]−[35] For the purpose of generating IC50 curves for these inhibitors, concentration ranges were set according to previously reported IC50 values. The inhibitors were first incubated with CARM1 for 15 min at room temperature before the enzyme reaction was initiated by the addition of the AdoMet/PABP1^456–466 substrate mixture. On the basis of the residual CARM1 activity measured, inhibition curves were generated and the IC50 values were determined (Table 3). To evaluate the suitability of the method for the determination of CARM1 inhibition, the IC50 values were compared with those obtained using a commercially available chemiluminescent ELISA kit. […] In addition, the peptide substrate and detection method employed in the ELISA kit are inherently different. The kit employs a histone H3-derived peptide that is covalently linked to the bottom of the well plate, and as such, no substrate concentration is given. Product formation in turn is detected using specific antibodies that recognize aDMA formation at arginine residue H3-R^17.

CARM1 [3] = molecular target: T2, CARM1; conditions: chemiluminescent ELISA kit, H3-derived peptide, 1 μM AdoMet; cited from earlier work

| Structure (SMILES) | IC50 (CARM1 [1]) [nM] | IC50 (CARM1 [2]) [nM] | IC50 (CARM1 [3]) [nM] |
| --- | --- | --- | --- |
| Nc1ncnc2c1ncn2[C@@H]1O[C@H](CSCC[C@H](N)C(=O)O)[C@@H](O)[C@H]1O [Compound 1, S-adenosyl-L-homocysteine, reference compound] | 873 ± 339 |  |  |
| CC(=O)N[C@@H](CO)C(=O)N[C@H](C(=O)NCC(=O)NCC(=O)N[C@@H](CCCCN)C(=O)N[C@@H](C)C(=O)N1CCC[C@H]1C(=O)N[C@@H](CCCNC(=N)NCCC[C@H]1O[C@@H](n2cnc3c(N)ncnc32)[C@H](O)[C@@H]1O)C(=O)N[C@@H](CCCCN)C(=O)N[C@@H](CCC(N)=O)C(=O)N[C@@H](CC(C)C)C(=O)N[C@@H](C)C(=O)N[C@H](C(=O)N[C@@H](CCCCN)C(=O)N[C@@H](C)C(=O)N[C@@H](C)C(N)=O)[C@@H](C)O)[C@@H](C)O [Compound 5] (Ac-STGGKAP[X1]KQLATKAA-NH2) | 770 ± 98 |  |  |
| CC(=O)N1CCC[C@H]1C(=O)N[C@@H](CCCNC(=N)NCCC[C@H]1O[C@@H](n2cnc3c(N)ncnc32)[C@H](O)[C@@H]1O)C(=O)N[C@@H](CCCCN)C(=O)N[C@@H](CCC(N)=O)C(N)=O [Compound 8] | 1460 ± 21 |  |  |

These reach a lower IC50 (CARM1 [1]). Values come first.

| IC50 (CARM1 [1]) [nM] | IC50 (CARM1 [2]) [nM] | Structure (SMILES) | IC50 (CARM1 [3]) [nM] |
| --- | --- | --- | --- |
| 617 ± 57 |  | CC(=O)N[C@@H](C)C(=O)N1CCC[C@H]1C(=O)N[C@@H](CCCNC(=N)NCCC[C@H]1O[C@@H](n2cnc3c(N)ncnc32)[C@H](O)[C@@H]1O)C(=O)N[C@@H](CCCCN)C(=O)N[C@@H](CCC(N)=O)C(=O)N[C@@H](CC(C)C)C(N)=O [Compound 7] (Ac-AP[X1]KQL-NH2) |  |
| 403 ± 28 |  | CC(=O)N[C@@H](CCCCN)C(=O)N[C@@H](C)C(=O)N1CCC[C@H]1C(=O)N[C@@H](CCCNC(=N)NCCC[C@H]1O[C@@H](n2cnc3c(N)ncnc32)[C@H](O)[C@@H]1O)C(=O)N[C@@H](CCCCN)C(=O)N[C@@H](CCC(N)=O)C(=O)N[C@@H](CC(C)C)C(=O)N[C@@H](C)C(N)=O [Compound 6] (Ac-KAP[X1]KQLA-NH2) |  |
| 327 ± 34 | 101 ± 11 | CC(C)Oc1ccc(-c2c[nH]cc2CN(C)CCN)cc1 [Compound 2, reference compound] |  |
| 212 ± 25 |  | CSCC[C@H](NC(=O)[C@@H](NC(=O)[C@H](CO)NC(=O)[C@H](Cc1ccccc1)NC(=O)[C@@H]1CCCN1C(=O)[C@@H]1CCCN1C(=O)[C@H](CCCNC(=N)NCCC[C@H]1O[C@@H](n2cnc3c(N)ncnc32)[C@H](O)[C@@H]1O)NC(=O)[C@@H]1CCCN1C(=O)[C@H](C)NC(=O)[C@H](C)NC(=O)[C@@H]1CCCN1C(C)=O)[C@@H](C)O)C(N)=O [Compound 9] (Ac-PAAP[X1]PPFSTM-NH2) | 90 ± 16 |
| 162 ± 10 |  | CNCCN1CCC(c2cc(CN(C)C(=O)c3cccc(Oc4ccccc4)c3)ccn2)CC1 [Compound 4, reference compound] |  |
